Assays:
[1] = target: dUTP pyrophosphatase (Plasmodium falciparum 3D7, UniProt Q8II92, K96A); experiment: Inhibition of recombinant Plasmodium falciparum dUTPase K96A mutant expressed in Escherichia coli BL21(DE3) cells using dUTP as substrate by spectrophotometric analysis
[2] = target: dUTP pyrophosphatase (Plasmodium falciparum 3D7, UniProt Q8II92, F46A); experiment: Inhibition of recombinant Plasmodium falciparum dUTPase F46A mutant expressed in Escherichia coli BL21(DE3) cells using dUTP as substrate by spectrophotometric analysis
[3] = target: T1, Deoxyuridine 5'-triphosphate nucleotidohydrolase, mitochondrial (Homo sapiens, UniProt P33316); experiment: Inhibition of human dUTPase using dUTP as substrate by spectrophotometric analysis
T1 sequence (P33316 whole entry): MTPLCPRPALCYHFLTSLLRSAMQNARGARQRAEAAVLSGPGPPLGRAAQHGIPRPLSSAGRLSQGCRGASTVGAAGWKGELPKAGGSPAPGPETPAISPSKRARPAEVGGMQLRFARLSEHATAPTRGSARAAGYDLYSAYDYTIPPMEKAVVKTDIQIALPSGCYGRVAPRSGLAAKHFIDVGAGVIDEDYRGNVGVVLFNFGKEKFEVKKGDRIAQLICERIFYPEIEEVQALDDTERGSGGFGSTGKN

[4] = target: dUTP pyrophosphatase (Plasmodium falciparum 3D7, UniProt Q8II92, I117A); experiment: Inhibition of recombinant Plasmodium falciparum dUTPase I117A mutant expressed in Escherichia coli BL21(DE3) cells using dUTP as substrate by spectrophotometric analysis
[5] = Selectivity index, ratio of Ki for recombinant Plasmodium falciparum dUTPase K96A mutant expressed in Escherichia coli BL21(DE3) cells to Ki for human dUTPase
[6] = Selectivity index, ratio Ki for recombinant wild type Plasmodium falciparum dUTPase expressed in Escherichia coli BL21(DE3) cells to Ki for human dUTPase
[7] = Selectivity index, ratio of Ki for recombinant Plasmodium falciparum dUTPase F46A mutant expressed in Escherichia coli BL21(DE3) cells to Ki for human dUTPase
[8] = tested on: Plasmodium falciparum; experiment: Antimalarial activity against blood stage Plasmodium falciparum infected in human red blood cells […] by propidium iodide staining based microscopic analysis; type: functional, organism-based
[9] = Selectivity index, ratio of Ki for recombinant Plasmodium falciparum dUTPase I117A mutant expressed in Escherichia coli BL21(DE3) cells to Ki for human dUTPase
[10] = Inhibition of recombinant wild type Plasmodium falciparum dUTPase expressed in Escherichia coli BL21(DE3) cells using dUTP as substrate by spectrophotometric analysis

dUTP pyrophosphatase (Plasmodium falciparum 3D7, UniProt Q8II92, I117A), sequence (Q8II92 whole entry I117A): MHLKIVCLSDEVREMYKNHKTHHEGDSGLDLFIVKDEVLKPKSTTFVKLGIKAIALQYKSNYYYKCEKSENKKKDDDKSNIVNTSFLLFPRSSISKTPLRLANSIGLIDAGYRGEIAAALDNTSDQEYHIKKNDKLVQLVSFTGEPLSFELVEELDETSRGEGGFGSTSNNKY
dUTP pyrophosphatase (Plasmodium falciparum 3D7, UniProt Q8II92, F46A), sequence (Q8II92 whole entry F46A): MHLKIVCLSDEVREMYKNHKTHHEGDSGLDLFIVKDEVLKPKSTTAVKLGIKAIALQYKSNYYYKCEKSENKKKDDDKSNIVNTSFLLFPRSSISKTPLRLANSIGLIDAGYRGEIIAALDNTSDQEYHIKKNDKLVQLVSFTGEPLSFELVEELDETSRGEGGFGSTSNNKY
dUTP pyrophosphatase (Plasmodium falciparum 3D7, UniProt Q8II92, K96A), sequence (Q8II92 whole entry K96A): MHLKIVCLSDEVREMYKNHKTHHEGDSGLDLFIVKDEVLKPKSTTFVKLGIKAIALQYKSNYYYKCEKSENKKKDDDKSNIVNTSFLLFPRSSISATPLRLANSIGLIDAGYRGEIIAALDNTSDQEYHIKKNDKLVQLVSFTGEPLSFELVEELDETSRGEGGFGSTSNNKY

Row | Structure (SMILES) | Ki [1] | Ki [2] | Ki [3] | Ki [4] | Ratio Ki [5] | Ratio Ki [6] | Ratio Ki [7] | IC50 [8] | Ratio Ki [9] | Ki [10]
1 | O=c1ccn([C@H]2C=C[C@@H](COC(c3ccccc3)(c3ccccc3)c3ccccc3)O2)c(=O)[nH]1 | 0.39 µM | 20.3 µM | 157 µM | 1.6 µM | 402 | 83 | 8 | > 11 µM | 98 | 1.9 µM
2 | O=c1ccn(CCCCCCNC(c2ccccc2)(c2ccccc2)c2ccccc2)c(=O)[nH]1 | 0.15 µM | 35 µM | – | 4.4 µM | > 6670 | > 556 | > 29 | – | > 227 | 1.8 µM
3 | O=c1ccn([C@H]2C[C@H](O)[C@@H](CNC(c3ccccc3)(c3ccccc3)c3ccccc3)O2)c(=O)[nH]1 | 0.11 µM | 20 µM | – | 1.3 µM | 418 | 192 | 2.3 | – | 35 | 0.24 µM
4 | O=c1ccn(CCCNC(c2ccccc2)(c2ccccc2)c2ccccc2)c(=O)[nH]1 | 0.04 µM | 28 µM | – | 0.6 µM | 35 | 7 | 0.04 | – | 2.4 | 0.2 µM
5 | O=c1ccn(CCC(CO)CNC(c2ccccc2)(c2ccccc2)c2ccccc2)c(=O)[nH]1 (centres undefined) | 0.04 µM | 29 µM | – | 0.27 µM | 142 | 28 | 0.19 | – | 21 | 0.2 µM
6 | O=c1ccn(COCCOC(c2ccccc2)(c2ccccc2)c2ccccc2)c(=O)[nH]1 | – | 13 µM | – | 8 µM | – | 24 | 1.3 | – | 2.1 | 0.7 µM
7 | CC(C)(C)[Si](OC[C@@H]1C=C[C@H](n2ccc(=O)[nH]c2=O)O1)(c1ccccc1)c1ccccc1 | 0.21 µM | 17 µM | > 1000 µM | 0.8 µM | > 2560 | > 833 | > 59 | 3 µM | > 1250 | 1.2 µM
8 | O=c1ccn([C@H]2C[C@H](F)[C@@H](COC(c3ccccc3)(c3ccccc3)c3ccccc3)O2)c(=O)[nH]1 | 4.8 µM | 225 µM | – | 406 µM | 95 | 91 | 2 | – | 1.1 | 5 µM
9 | O=c1ccn(C/C=C/COC(c2ccccc2)(c2ccccc2)c2ccccc2)c(=O)[nH]1 | 0.09 µM | 6 µM | – | 0.8 µM | > 11100 | > 1670 | > 167 | – | > 1250 | 0.6 µM
